Experiments:
Format in all cases: biochemical
[1] = molecular target: T1, insulin degrading enzyme (IDE) (Homo sapiens, UniProt P14735); test: Circular dichroism analysis of insulin degradation by IDE; conditions: CD at 222 nm and LC, substrate:enzyme ratio 100:1, 37 °C
[2] = molecular target: T1, insulin degrading enzyme (IDE); test: Identification of IDE-mediated cleavage sites by HPLC and MALDI-TOF; conditions: HPLC (C-18) and MALDI-TOF; 50 mM Tris pH 7.3, 37 °C; three runs
[3] = molecular target: T1, insulin degrading enzyme (IDE); test: SDS-PAGE assay for ghrelin proteolysis by IDE; conditions: EDTA added to the enzyme pre-mixture, 50 mM Tris pH 7.3, 37 °C

In the case of “insulin: established IDE substrate, used in CD experiments”, the “insulin degradation by IDE in 30% TFE” value [1] is reported as “does not degrade”.
`CCCCCCCC(=O)OC[C@H](NC(=O)[C@H](CO)NC(=O)CN)C(=O)N[C@@H](Cc1ccccc1)C(=O)N[C@@H](CC(C)C)C(=O)N[C@@H](CO)C(=O)N1CCC[C@H]1C(=O)N[C@@H](CCC(=O)O)C(=O)N[C@@H](Cc1cnc[nH]1)C(=O)N[C@@H](CCC(N)=O)C(=O)N[C@@H](CCCNC(=N)N)C(=O)N[C@H](C(=O)N[C@@H](CCC(N)=O)C(=O)N[C@@H](CCC(N)=O)C(=O)N[C@@H](CCCNC(=N)N)C(=O)N[C@@H](CCCCN)C(=O)N[C@@H](CCC(=O)O)C(=O)N[C@@H](CO)C(=O)N[C@@H](CCCCN)C(=O)N[C@@H](CCCCN)C(=O)N1CCC[C@H]1C(=O)N1CCC[C@H]1C(=O)N[C@@H](C)C(=O)N[C@@H](CCCCN)C(=O)N[C@@H](CC(C)C)C(=O)N[C@@H](CCC(N)=O)C(=O)N1CCC[C@H]1C(=O)N[C@@H](CCCNC(=N)N)C(=O)O)C(C)C` [ghrelin] was tested, and the “IDE-mediated cleavage sites (initial)” value [2] was “Q13/ Q14, Q14/R15 and possibly Q10/R11”.
In the case of `O=C(O)CN(CCN(CC(=O)O)CC(=O)O)CC(=O)O` [EDTA, ethylenediaminetetraacetate], the “inhibition of IDE-mediated ghrelin proteolysis” value [3] is reported as “inhibited”.

Source: paper doi:10.1101/2021.06.10.447714v2 (bioRxiv, 2021)
